This passage reports IC50 results from patent publication US12391679B2, “Benzamide-substituted bicyclic imidazo- and pyrazolo-fused -pyridine, -pyrimide, and -pyridazine compounds for treatment of inflammatory diseases” (ONCO3R Therapeutics BV, priority 2019, dated 2025).

What all share (assay type): biochemical
In one assay the target is T1, SIK2 (Homo sapiens, UniProt Q9H0K1).
T1 construct: purchased ThermoFisher Scientific PV4792
As to the kind of experiment: ADP-Glo kinase assay, SIK2. On the procedure: (§1) The ADP-Glo™ kinase assay is a luminescent technology assay which measures the ADP formed from a kinase reaction. […] In a second step the kinase reactions are terminated and all the remaining ATP is depleted. In a final step the ADP is converted into ATP and this newly synthesized ATP is measured by using a luciferase/luciferin reaction. The generated light is measured using an Envision plate reader, wherein the luminescent signal obtained positively correlates with the kinase activity.
(§2) 1% DMSO and 10 μM staurosporine final concentrations are used as negative and positive controls.
(§3) 2 μL enzyme-substrate mixture is added to the assay plates.
(§4) The reaction is started by adding 2 μL diluted ATP on the assay plates. Plates are centrifuged for a few seconds at 1000 rpm and gently shaken for […] followed by an incubation at RT for 120 min.
(§5) The reactions are stopped and the unconsumed ATP is depleted by adding 5 μL ADP-Glo Reagent (Promega, Cat #V9120) to the reaction. The plates are centrifuged for a few seconds at 1000 rpm and incubated at RT for 40 min (ATP depletion).
(§6) The ADP is converted to ATP and luciferase and luciferin is introduced to detect ATP by adding 10 μL Kinase Detection Reagent (Promega, Cat #V913B+V914r) to the reaction. The plates are centrifuged for a few seconds at 1000 rpm and incubated at RT for 30 min (ADP detection).
(§7) Luminescence is measured on an Envision plate reader (PerkinElmer Inc.).
On the technique in general: ADP-Glo first removes unused ATP, then detects ADP through luciferase.

Another assay has as its target T2, SIK3 (Homo sapiens, UniProt Q9Y2K2).
T2 construct: purchased SignalChem S12-11G-100
As to the kind of experiment: ADP-Glo kinase assay, SIK3. Here is the method:
as §1, §2, §3, §4, §5, §6, §7

A further assay has as its target T3, SIK1 (Homo sapiens, UniProt P57059).
T3 construct: purchased Carna Biosciences 02-131
As to the kind of experiment: ADP-Glo kinase assay, SIK1. Here is the method: as §1, §2, §3, §4, §5, §6, §7

The IC50 is the concentration that gives 50% inhibition. Read a high IC50 as weaker potency.

Bounds are passed on as bounds.

T2 sequence (Q9Y2K2 59-365 limits assumed): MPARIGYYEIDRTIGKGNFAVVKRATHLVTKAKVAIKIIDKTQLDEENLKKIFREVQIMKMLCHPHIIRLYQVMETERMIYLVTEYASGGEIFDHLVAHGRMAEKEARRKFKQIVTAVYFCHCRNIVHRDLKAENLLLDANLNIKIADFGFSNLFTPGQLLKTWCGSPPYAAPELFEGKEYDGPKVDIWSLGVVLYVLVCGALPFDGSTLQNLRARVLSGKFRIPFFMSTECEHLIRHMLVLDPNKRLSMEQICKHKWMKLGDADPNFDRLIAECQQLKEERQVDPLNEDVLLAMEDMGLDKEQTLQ
T3 sequence (P57059 whole entry): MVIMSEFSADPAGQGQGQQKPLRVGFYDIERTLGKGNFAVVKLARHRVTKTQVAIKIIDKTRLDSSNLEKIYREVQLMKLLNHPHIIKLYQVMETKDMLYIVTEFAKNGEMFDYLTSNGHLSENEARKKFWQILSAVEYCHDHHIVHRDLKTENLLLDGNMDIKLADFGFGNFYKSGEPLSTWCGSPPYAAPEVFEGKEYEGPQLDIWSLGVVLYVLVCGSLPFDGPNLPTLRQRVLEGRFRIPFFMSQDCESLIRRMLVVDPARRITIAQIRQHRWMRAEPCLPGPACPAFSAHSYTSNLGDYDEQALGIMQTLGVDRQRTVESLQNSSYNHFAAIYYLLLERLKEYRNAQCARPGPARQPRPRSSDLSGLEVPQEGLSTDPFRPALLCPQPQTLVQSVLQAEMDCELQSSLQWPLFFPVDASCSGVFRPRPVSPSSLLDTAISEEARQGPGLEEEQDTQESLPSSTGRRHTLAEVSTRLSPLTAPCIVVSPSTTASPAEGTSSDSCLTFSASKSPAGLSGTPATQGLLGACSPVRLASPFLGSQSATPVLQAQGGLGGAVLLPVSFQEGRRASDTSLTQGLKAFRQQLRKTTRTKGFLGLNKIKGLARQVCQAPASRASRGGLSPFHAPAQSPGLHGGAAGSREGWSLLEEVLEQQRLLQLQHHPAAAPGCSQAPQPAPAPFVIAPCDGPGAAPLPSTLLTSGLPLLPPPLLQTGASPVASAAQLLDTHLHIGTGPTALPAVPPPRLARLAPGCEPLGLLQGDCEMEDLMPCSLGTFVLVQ
T1 sequence (Q9H0K1 whole entry): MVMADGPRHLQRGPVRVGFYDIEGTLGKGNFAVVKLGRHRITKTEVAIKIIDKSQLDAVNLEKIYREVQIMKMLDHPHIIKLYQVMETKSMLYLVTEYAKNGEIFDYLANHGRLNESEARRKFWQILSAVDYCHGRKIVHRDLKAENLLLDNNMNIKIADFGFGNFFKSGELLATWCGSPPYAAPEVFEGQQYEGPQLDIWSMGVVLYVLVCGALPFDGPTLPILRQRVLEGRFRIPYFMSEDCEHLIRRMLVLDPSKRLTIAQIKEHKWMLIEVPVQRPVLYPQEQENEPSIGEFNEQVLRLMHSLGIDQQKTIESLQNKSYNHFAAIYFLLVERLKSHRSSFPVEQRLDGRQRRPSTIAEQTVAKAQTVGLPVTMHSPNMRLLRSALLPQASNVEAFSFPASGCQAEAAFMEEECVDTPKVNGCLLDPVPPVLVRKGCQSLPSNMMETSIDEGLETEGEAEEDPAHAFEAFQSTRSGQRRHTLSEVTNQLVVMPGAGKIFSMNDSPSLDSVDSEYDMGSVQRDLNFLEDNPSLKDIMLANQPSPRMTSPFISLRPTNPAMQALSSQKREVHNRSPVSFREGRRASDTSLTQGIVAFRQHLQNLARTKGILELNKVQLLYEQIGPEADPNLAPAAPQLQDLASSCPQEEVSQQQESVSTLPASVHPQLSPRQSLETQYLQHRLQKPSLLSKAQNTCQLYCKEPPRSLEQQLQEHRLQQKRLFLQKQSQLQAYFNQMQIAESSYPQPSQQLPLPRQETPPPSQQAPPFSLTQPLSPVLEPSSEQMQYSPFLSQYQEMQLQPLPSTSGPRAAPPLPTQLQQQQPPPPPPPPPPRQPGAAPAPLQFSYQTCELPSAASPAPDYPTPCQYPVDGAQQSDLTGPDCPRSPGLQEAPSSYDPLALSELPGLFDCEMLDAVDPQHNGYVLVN

In the case of `COc1cc(-c2cnc3cc(C4CCN4)ccn23)cc(OC(F)F)c1C(=O)NC1CC1` (stereo not drawn) [Cpd 203, 4-[7-(azetidin-2-yl)imidazo[1,2-a]pyridin-3-yl]-N-cyclopropyl-2-(difluoromethoxy)-6-methoxy-benzamide], the IC50 against SIK2 is 100 to 500 nM; against SIK3, 10 to 100 nM; against SIK1 it was > 500 nM.
The corresponding values for `COc1cc(-c2cnc3cc(C4(N5CCOCC5)COC4)ccn23)cc(OC(F)F)c1C(=O)NC1CC1` [Cpd 222, N-cyclopropyl-2-(difluoromethoxy)-6-methoxy-4-[7-(3-morpholinooxetan-3-yl)imidazo[1,2-a]pyridin-3-yl]benzamide] are > 500 nM, 100 to 500 nM and > 500 nM.
The corresponding values for `COCC1(NC(=O)c2c(OC)cc(-c3cnc4cc(C(C)(C)C#N)ccn34)cc2OC(F)F)CC1` [Cpd 81, 4-[7-(1-cyano-1-methyl-ethyl)imidazo[1,2-a]pyridin-3-yl]-2-(difluoromethoxy)-6-methoxy-N-[1-(methoxymethyl)cyclopropyl]benzamide] are > 500 nM, > 500 nM and > 500 nM.
As for `COc1cc(-c2cnc3cc(C4(C)COCCO4)ccn23)cc(OC(F)F)c1C(=O)NC1CC1` (stereo not drawn) [Cpd 220, N-cyclopropyl-2-(difluoromethoxy)-6-methoxy-4-[7-(2-methyl-1,4-dioxan-2-yl)imidazo[1,2-a]pyridin-3-yl]benzamide], the IC50 on SIK2 is > 500 nM; on SIK3, 10 to 100 nM; on SIK1 it was > 500 nM.
Regarding `COc1cc(-c2cnc3cc(C(C)(C)C#N)ccn23)cc(OC(F)F)c1C(=O)NCC1COC1` [Cpd 102, 4-[7-(1-cyano-1-methyl-ethyl)imidazo[1,2-a]pyridin-3-yl]-2-(difluoromethoxy)-6-methoxy-N-(oxetan-3-ylmethyl)benzamide], the IC50 on SIK2 is > 500 nM; on SIK3, 10 to 100 nM; against SIK1, > 500 nM.
As for `COc1cc(-c2cnc3cc(C(C)(C)C#N)ccn23)cc(OC(F)F)c1C(=O)N1CC(OC)C1` [Cpd 98, 2-[3-[3-(difluoromethoxy)-5-methoxy-4-(3-methoxyazetidine-1-carbonyl)phenyl]imidazo[1,2-a]pyridin-7-yl]-2-methyl-propanenitrile], the figures for the IC50 at SIK2, on SIK3 and against SIK1 were > 500 nM, 10 to 100 nM and > 500 nM, respectively.
On to `COC(=O)C(F)(F)c1ccn2c(-c3cc(OC)c(C(=O)NC4CC4)c(OC(F)F)c3)cnc2c1` [Cpd 131, methyl 2-[3-[4-(cyclopropylcarbamoyl)-3-(difluoromethoxy)-5-methoxy-phenyl]imidazo[1,2-a]pyridin-7-yl]-2,2-difluoro-acetate], for which the values for the IC50 on SIK2, on SIK3 and at SIK1 were > 500 nM, 0.01 to 10 nM and > 500 nM, respectively.
On to `COc1cc(-c2cnc3cc(C(C)(C)C#N)ccn23)cc(OC(F)F)c1C(=O)N1CC(O)(C2CC2)C1` [Cpd 74, 2-[3-[4-(3-cyclopropyl-3-hydroxy-azetidine-1-carbonyl)-3-(difluoromethoxy)-5-methoxy-phenyl]imidazo[1,2-a]pyridin-7-yl]-2-methyl-propanenitrile], for which the IC50 on SIK2 is > 500 nM; against SIK3, 10 to 100 nM; on SIK1, > 500 nM.
Regarding `COc1cc(-c2cnc3cc(C(C)(C)C#N)ccn23)cc(OC(F)F)c1C(=O)N1CCC(OC)CC1` [Cpd 46, 2-[3-[3-(difluoromethoxy)-5-methoxy-4-(4-methoxypiperidine-1-carbonyl)phenyl]imidazo[1,2-a]pyridin-7-yl]-2-methyl-propanenitrile], the IC50 against SIK2, at SIK3 and at SIK1 was > 500 nM throughout.
`COc1cc(-c2cnc3cc(C(C)(C)CN4CCCC4)ccn23)cc(OC(F)F)c1C(=O)NC1CC1` [Cpd 161, N-cyclopropyl-2-(difluoromethoxy)-4-[7-(1,1-dimethyl-2-pyrrolidin-1-yl-ethyl)imidazo[1,2-a]pyridin-3-yl]-6-methoxy-benzamide]: the results for the IC50 against SIK2, against SIK3 and at SIK1 were > 500 nM, 10 to 100 nM and > 500 nM, respectively.
With `COc1cc(-c2cnc3cc(C(C)(C)C#N)ccn23)cc(OC(F)F)c1C(=O)N(C)CC1CC1` [Cpd 82, 4-[7-(1-cyano-1-methyl-ethyl)imidazo[1,2-a]pyridin-3-yl]-N-(cyclopropylmethyl)-2-(difluoromethoxy)-6-methoxy-N-methyl-benzamide], the concentration for half-maximal inhibition (IC50) against SIK2, against SIK3 and against SIK1 was > 500 nM each time.
As for `COc1cc(-c2cnn3cc(C(C)(C)c4noc(C)n4)ccc23)cc(OC(F)F)c1C(=O)NC1CC1` [Cpd 247, N-cyclopropyl-2-(difluoromethoxy)-6-methoxy-4-[6-[1-methyl-1-(5-methyl-1,2,4-oxadiazol-3-yl)ethyl]pyrazolo[1,5-a]pyridin-3-yl]benzamide], the IC50 against SIK2 is > 500 nM; against SIK3, 10 to 100 nM; at SIK1, > 500 nM.
Turning to `COc1cc(-c2cnc3cc(C(C)(C)C#N)ccn23)cc(OC(F)F)c1C(=O)N(C)C1CC1` [Cpd 84, 4-[7-(1-cyano-1-methyl-ethyl)imidazo[1,2-a]pyridin-3-yl]-N-cyclopropyl-2-(difluoromethoxy)-6-methoxy-N-methyl-benzamide], the IC50 at SIK2 is > 500 nM; against SIK3, 100 to 500 nM; on SIK1, > 500 nM.
On to `COc1cc(-c2cnc3cc(C(O)C4CCC4)ccn23)cc(OC(F)F)c1C(=O)NC1CC1` (stereo not drawn) [Cpd 199, 4-[7-[cyclobutyl(hydroxy)methyl]imidazo[1,2-a]pyridin-3-yl]-N-cyclopropyl-2-(difluoromethoxy)-6-methoxy-benzamide], for which the IC50 against SIK2 was > 500 nM; at SIK3, 10 to 100 nM; against SIK1, > 500 nM.
Turning to `COc1cc(-c2cnn3cc(C(C)(C)OCCO)ccc23)cc(OC(F)F)c1C(=O)NC1CC1` [Cpd 239, N-cyclopropyl-2-(difluoromethoxy)-4-[6-[1-(2-hydroxyethoxy)-1-methyl-ethyl]pyrazolo[1,5-a]pyridin-3-yl]-6-methoxy-benzamide], the IC50 against SIK2 is > 500 nM; at SIK3, 10 to 100 nM; against SIK1, > 500 nM.
On to `COc1cc(-c2cnc3cc(C(C)(C)C#N)ccn23)cc(OC(F)F)c1C(=O)NC(C)C` [Cpd 78, 4-[7-(1-cyano-1-methyl-ethyl)imidazo[1,2-a]pyridin-3-yl]-2-(difluoromethoxy)-N-isopropyl-6-methoxy-benzamide], for which the half-maximal inhibitory concentration (IC50) at SIK2 was > 500 nM; at SIK3 it was 10 to 100 nM; on SIK1, > 500 nM.
For `COc1cc(-c2cnn3cc(C4(NCC#N)CCC4)ccc23)cc(OC(F)F)c1C(=O)N[C@@H]1C[C@@H]1F` [Cpd 270, 4-[6-[1-(cyanomethylamino)cyclobutyl]pyrazolo[1,5-a]pyridin-3-yl]-2-(difluoromethoxy)-N-[(1R,2S)-2-fluorocyclopropyl]-6-methoxy-benzamide], the values for the IC50 against SIK2, against SIK3 and at SIK1 were > 500 nM, 10 to 100 nM and > 500 nM, respectively.
Regarding `COc1cc(-c2cnn3cc(C(C)(C)C#N)ccc23)cc(OC)c1C(=O)NC1CC1` [Cpd 259, 4-[6-(1-cyano-1-methyl-ethyl)pyrazolo[1,5-a]pyridin-3-yl]-N-cyclopropyl-2,6-dimethoxy-benzamide], the results for the concentration for half-maximal inhibition (IC50) against SIK2, at SIK3 and on SIK1 were > 500 nM, 10 to 100 nM and > 500 nM, respectively.
For the compound `COc1cc(-c2cnc3cc(C4(C)CN(C)CCO4)ccn23)cc(OC(F)F)c1C(=O)NCC(F)(F)F` (stereo not drawn) [Cpd 214, 2-(difluoromethoxy)-4-[7-(2,4-dimethylmorpholin-2-yl)imidazo[1,2-a]pyridin-3-yl]-6-methoxy-N-(2,2,2-trifluoroethyl)benzamide], the figures for the IC50 against SIK2, at SIK3 and on SIK1 were > 500 nM, 100 to 500 nM and > 500 nM, respectively.
For the compound `COc1cc(-c2cnc3cc(C(C)(C)C#N)ccn23)cc(OC(F)F)c1C(=O)N1CCC(O)CC1` [Cpd 41, 2-[3-[3-(difluoromethoxy)-4-(4-hydroxypiperidine-1-carbonyl)-5-methoxy-phenyl]imidazo[1,2-a]pyridin-7-yl]-2-methyl-propanenitrile], the IC50 on SIK2, against SIK3 and against SIK1 was > 500 nM throughout.
`COc1cc(-c2cnc3cc(C(C)(C)N4CCOCC4)ccn23)cc(OC(F)F)c1C(=O)NC1CC1` [Cpd 226, N-cyclopropyl-2-(difluoromethoxy)-6-methoxy-4-[7-(1-methyl-1-morpholino-ethyl)imidazo[1,2-a]pyridin-3-yl]benzamide]: the IC50 on SIK2 is > 500 nM; against SIK3 it was 10 to 100 nM; against SIK1 it was > 500 nM.
`COc1cc(-c2cnc3cc(C(C)(C)C#N)ccn23)cc(OC(F)F)c1C(=O)N1CCS(=O)(=O)CC1` [Cpd 38, 2-[3-[3-(difluoromethoxy)-4-(1,1-dioxo-1,4-thiazinane-4-carbonyl)-5-methoxy-phenyl]imidazo[1,2-a]pyridin-7-yl]-2-methyl-propanenitrile]: the IC50 on SIK2, at SIK3 and against SIK1 was > 500 nM each time.
